This note sets out measurements from EP2265599B1, “CRYSTAL FORM OF PHENYLAMINOPYRIMIDINE DERIVATIVE” (Natco Pharma Limited, priority 2008, dated 2009).

SMILES strings stand for the structures. Entries after “also recorded” stand apart in the source; their conditions may differ.

The subject of one test is K562 cells. As to the kind of experiment: Spleenic enlargement and Crk immunocytochemistry of spleen in nude mice implanted with K562 cells. The format is in vivo. The settings on record: ip injections. On the procedure: Spleen and any secondary tumors were harvested, fixed in formaldehyde and paraffin embedded as per standard protocols. Paraffin section were obtained and processed for immunocytochemistry. The rehydrated sections were treated with 0.3% H2O2 to inactivate any native peroxidases prior to immuno-probing. The sections were blocked with filter sterilized (0.22µm) 1% BSA-PBS at room temperature for 1h. Following blocking, the sections were immuno-probed with a human specific anti-Crk monoclonal primary antibody raised in rabbit against a synthetic peptide corresponding to residues in the SH2 domain, near the N-term of human CrkL protein (Abcam, Cambridge, MA, USA) in 1%BSA-PBS overnight. Secondary antibody (anti-rabbit) conjugated to HRP was used to detect the presence of primary antibody. The sections were briefly rinsed three times in PBS solution after immuno-probing with secondary antibody, and DAB HRP substrate was added per manufacture's instructions (Sigma St Louis MO USA). […] For negative controls primary antibody were eliminated. Leukemic mice spleen served as positive controls.
Mice were sacrificed after a decrease in LGI was observed and spleen harvested. […] Control mice also developed random subcutaneous tumors showing Crk expression, indicative of the presence of K562 cells.

Another test relates to 5310. The test can be described thus: Matrigel invasion assay (modified Boyden chamber), 5310. The settings on record: cells treated 48 h. The format is cell-based. On the procedure:
(§1) The in vitro invasiveness of 4910, 5310 and U87 glioma cells and MDAMB231 and ZR71 breast cancer cells in the presence of specified concentrations of compounds were assessed using a modified Boyden chamber assay. Cells were treated with these compounds for 48 h. 1x10^6 cells were suspended in 600µl of serum-free medium supplemented with 0.2% BSA and placed in the upper compartment of the transwell chambers (Coming Costar Fischer Scientific Cat #07-200-158, Pittsburgh PA) coated with Matrigel (0.7 mg/ml). The lower compartment of the chamber was filled with 200 µl of serum medium and the cells were allowed to migrate for 24 h. After incubation, the cells were fixed and stained with Hema-3 and quantified as previously described (Mohanam et al. 1993). The migrated cells were imaged microscopically to determine the reduction in invasiveness induced by the compounds of this invention.
(§2) The in vitro invasiveness of 4910, 5310 and U87 glioma cells and MDAMB231 and ZR71 breast cancer cells in the presence of specified concentrations of compounds were assessed using a modified Boyden chamber assay. Cells were treated with these compounds for 48 h.

In test [1] the test system is 4910 human glioma xenograft cells. As to the kind of experiment: Glioma radiation study, intracranially implanted 4910 cells. The format is in vivo, Nude mice. The method, then:
Nude mice were intracranially implanted with 4910 human glioma xenograft cells (1x10^6 cells). Ten days after implantation mice were treated with AN019, AN024 or temozolomide with or without radiation (5Gy/week). The experiment was terminated at day 40 post implantation.

Test [2] deals with K562 luc human leukemia cells. The test can be described thus: Low dose oral treatment of nude mice implanted with K562 luc cells (luciferase expression). The settings on record: oral administration. The format is in vivo. The method, then:
Nude mice (nu/nu) were implanted with K562 cells (1x106) normal/luc via tail vein. Five mice were used per group and divided into 24 groups + 2 control. All groups were implanted with K562 normal/luc cells. Of the 24 groups, 12 were used for luciferase studies whereas the other 12 were used for blood smear count studies.
Drugs were administered by oral gavage (2% gum acacia and 2% SLS in an aqueous suspension).

For another test, the system named is 4910. As to the kind of experiment: Matrigel invasion assay (modified Boyden chamber), 4910. The format is cell-based, human. The settings on record: cells treated 48 h. On the procedure: as §1, §2
The next test concerns Baf3Wt. The test can be described thus: In vivo anti-leukemic activity, blast cell count in blood smears, Baf3Wt implanted nude mice. The settings on record: Imatinib 10mg/kg, AN019 20mg/kg, AN024 20mg/kg, oral gavage or ip from day 15; up to day 42. From the text: Blood smears were obtained via the tail vein or via the femoral vein every 6th day and blast cells counted and graphically represented.
Abdominal swelling and decrease in activity was monitored daily, blood smear taken via the tail vein or the femoral vein every 6th day and H&E stained as per standard protocols. 42 days after implantation, mice were sacrificed and spleens harvested.
Nude mice were intraperitoneally implanted with Baf3 mutant cells (wt, T315I, M351T or E255K). […] Blood was drawn from the femoral vein or tail vein every 6th day and blast cell count determined and graphically represented.

With `Cc1ccc(NC(=O)c2cc(C(F)(F)F)cc(C(F)(F)F)c2)cc1Nc1nccc(-c2cccnc2)n1` [AN019, (3,5-bis trifluoromethyl)-N-[4-methyl-3-(4-pyridin-3yl-pyrimidin-2ylamino)-phenyl]-benzamide], the “Crk expression in spleen (immunohistochemistry)” value in the test with K562 cells (paraffin sections of spleen) is given as “basal levels of Crk expression; also recorded: only basal level expression of Crk expression comparable to negative control”. In the test with K562 cells (spleen harvested after decrease in LGI), the “Spleenic enlargement (gross observation)” value was “did not show any spleenic enlargement”. For the same compound, the “+Radiation % Invasion” value in the test on 5310 (5310, with radiation) came out at 6%; in the test on 4910 (4910, with radiation), 15%. Moreover, the “-Radiation % Invasion” value worked out at 5% in the test on 5310 (5310, without radiation) and 42% in the test on 4910 (4910, without radiation). The “intracranial tumours (size, appearance)” value in test [1] (with radiation (5Gy/week)) is given as “tumor size was significantly reduced”; in test [1] (without radiation) it was “showed tumours similar to AN024 treated animals”. Moreover, the “animals cured / no observable intracranial tumor” value in test [1] (with radiation (5Gy/week), terminated at day 40) is 6 of 10 animals. Also, the “animals cured / complete absence of intracranial tumours” value in test [1] (without radiation, treatment from ten days after implantation, terminated at day 40) is reported as 6 of 10 animals. Moreover, the luciferase expression result in test [2] (1mg/kg) is “did not induce a decrease in luciferase expression”; in test [2] (5mg/kg) it was “caused fixation of leukemia cells at constant expression levels”; in test [2] (10mg/kg), “caused a decrease in luciferase expression”; in test [2] (20mg/kg), “caused a decrease in luciferase expression”. In addition, in the test with Baf3Wt, the “blast cell count in blood smears” value is on record as “complete regression of leukemic blast cells”.
